Measurements from ChEMBL document CHEMBL1201862, “PubChem BioAssay data set” (2004).
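96-well plates; 48 h exposure; 5 concentrations. Endpoints by linear interpolation between flanking doses. Not reached: highest tested concentration assigned. Abbreviation: GI50, concentration required for 50% inhibition of growth.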 Active and inactive are the calls of the source. Cut-off read from the data, not from the text of the source: active = GI50 up to about 1.1 µM and inactive = higher.

Key:
Experiment in all cases: NCI-60 cell line screen, 48 h
[1] = system: A498
[2] = system: EKVX
[3] = system: HOP-62
[4] = system: IGROV-1
[5] = system: MOLT-4
[6] = system: RXF 393
[7] = system: SF-268
[8] = system: SK-MEL-28
[9] = system: SW-620
[10] = system: TK-10
[11] = system: U-251
[12] = system: UACC-257
[13] = system: UACC-62
[14] = system: HOP-92
[15] = system: RPMI-8226

Measured: GI50

CCSC1(SCC)CCN(/C=N/C(C)(C)C)C1
inactive: [1] > 100 µM | [2] > 100 µM | [3] > 100 µM | [4] > 100 µM | [5] > 100 µM | [6] 67.8 µM | [7] > 100 µM | [8] > 100 µM | [9] 19.5 µM | [10] > 100 µM | [11] > 100 µM | [12] > 100 µM | [13] > 100 µM

COc1ccc2c(c1OC)C1=C(C2=O)c2cc3c(cc2CCN1)OCO3
inactive: [1] 55.8 µM | [2] 46.9 µM | [3] 48.6 µM | [14] 58.6 µM | [4] 68.1 µM | [5] 21.6 µM | [15] 23.1 µM | [6] 42.7 µM | [7] 41.9 µM | [8] 42.7 µM | [9] 22.5 µM | [10] 54.1 µM | [12] 34.5 µM | [13] 35.4 µM

Cc1ccc(N(C(=O)CC(=O)N2N=C(c3ccccc3)C(/N=N/c3ccc([N+](=O)[O-])cc3)C2=O)C(=O)c2ccc(Cl)cc2)cc1 (configuration not stated)
inactive: [1] 6.14 µM | [2] 99.5 µM | [3] 10.3 µM | [14] 22.5 µM | [4] 16.8 µM | [5] > 42.1 µM | [15] 21.1 µM | [6] 5.16 µM | [7] 9.04 µM | [8] 48.5 µM | [9] 21.6 µM | [10] 10.9 µM | [11] 6.27 µM | [12] 30.9 µM | [13] 30.3 µM

COc1cc(Nc2nc3ccc(C(F)(F)F)cc3nc2-c2ccccc2)cc(OC)c1OC
active: [14] 0.991 µM
inactive: [1] 24.5 µM | [2] 18.2 µM | [3] > 100 µM | [4] > 100 µM | [5] 8.41 µM | [6] 30 µM | [7] 5.75 µM | [8] 40.8 µM | [9] 85.3 µM | [10] > 100 µM | [11] 32.7 µM | [12] 16.1 µM | [13] 36.2 µM

CC(C)CC(=O)NS(=O)(=O)c1ccccc1
inactive: [1] > 100 µM | [2] > 100 µM | [3] > 100 µM | [14] > 100 µM | [4] > 100 µM | [5] > 100 µM | [15] > 100 µM | [6] > 100 µM | [7] > 100 µM | [8] > 100 µM | [9] > 100 µM | [10] > 100 µM | [11] > 100 µM | [12] > 100 µM | [13] > 100 µM

COC1(OC)C2(Cl)C(Cl)=C(Cl)C1(Cl)C1C2C2CC1(C(=O)O)c1ccccc12 (configuration not stated)
inactive: [1] 81.1 µM | [3] 23.4 µM | [14] 35.6 µM | [4] 28.8 µM | [5] 13.6 µM | [15] 17 µM | [7] 27.6 µM | [8] 19.4 µM | [9] 18.8 µM | [10] 29.1 µM | [11] 18.5 µM | [12] 14.6 µM | [13] 16.5 µM

CCOC(=O)C(C)(c1c(C)[nH]c2ccccc12)c1c(C)[nH]c2ccccc12
inactive: [1] 17.8 µM | [2] 25.5 µM | [3] 18.9 µM | [4] 20.6 µM | [5] 13.6 µM | [15] 16.8 µM | [6] 12.9 µM | [8] 15.3 µM | [9] 16.9 µM | [10] 18.7 µM | [11] 16.9 µM | [12] 14.8 µM | [13] 14.2 µM

CC(O[Si](C)(C)C)C1C=CC(C)n2c(=O)n(-c3ccccc3)c(=O)n21 (configuration not stated)
inactive: [2] > 100 µM | [3] > 100 µM | [4] > 100 µM | [5] > 100 µM | [15] > 100 µM | [6] > 100 µM | [8] > 100 µM | [10] > 100 µM | [11] > 100 µM | [13] > 100 µM
active: [14] < 0.01 µM | [7] < 0.01 µM

CCOc1cc[n+]([C-](C#N)C#N)cc1
inactive: [1] > 100 µM | [2] > 100 µM | [3] > 100 µM | [14] > 100 µM | [4] > 100 µM | [5] > 100 µM | [15] > 100 µM | [6] > 100 µM | [7] > 100 µM | [9] > 100 µM | [10] > 100 µM | [11] > 100 µM | [12] > 100 µM | [13] > 100 µM

Cc1cccc2c1NC(c1c(C)[nH]c3ccccc13)C2 (configuration not stated)
inactive: [1] > 100 µM | [2] 82.6 µM | [3] > 100 µM | [14] 1.41 µM | [4] 33.4 µM | [5] 63 µM | [15] > 100 µM | [6] 56.4 µM | [7] > 100 µM | [8] > 100 µM | [9] 68.2 µM | [10] > 100 µM | [11] > 100 µM | [12] > 100 µM | [13] 78.2 µM

CCCCc1c2c(nc3c1CCc1cc4cc5c(nc4nc1-3)-c1nc3c(c(CCCC)c1CC5)CCCC3)CCCC2
inactive: [2] 12.5 µM | [3] 37.9 µM | [4] 38.5 µM | [5] 35.2 µM | [15] 27 µM | [6] 6.56 µM | [7] 39.3 µM | [8] 69.5 µM | [9] 40 µM | [10] 26.9 µM | [11] 31.8 µM | [12] 59.8 µM | [13] 19.6 µM

CCCC12Cc3c(OC)ccc(OC)c3CC(Cc3c(OC)ccc(OC)c31)C2=O (configuration not stated)
inactive: [1] > 100 µM | [2] > 100 µM | [3] > 100 µM | [5] 7.36 µM | [6] > 100 µM | [7] > 100 µM | [8] > 100 µM | [9] > 100 µM | [10] > 100 µM | [11] > 100 µM | [12] > 100 µM

Cc1cc2c(=O)cc(-c3cccs3)oc2c(C(=O)O)c1C
inactive: [1] > 100 µM | [2] > 100 µM | [3] > 100 µM | [14] > 100 µM | [4] > 100 µM | [5] > 100 µM | [15] 59.3 µM | [7] 34.2 µM | [8] > 100 µM | [9] > 100 µM | [10] > 100 µM | [11] > 100 µM | [12] > 100 µM | [13] > 100 µM

C=C1c2[nH]c3c([N+](=O)[O-])c(OC)ccc3c2CCN1C(C)=O
inactive: [1] > 100 µM | [2] > 100 µM | [3] > 100 µM | [4] > 100 µM | [5] > 100 µM | [15] > 100 µM | [6] > 100 µM | [7] 28.7 µM | [8] > 100 µM | [9] > 100 µM | [10] > 100 µM | [11] > 100 µM | [12] > 100 µM | [13] 61.9 µM

CC(C)(C)C1=CC(=N/N=c2\scc(-c3ccccc3)n2-c2ccccc2)C=C(C(C)(C)C)C1=O
inactive: [1] > 100 µM | [2] > 100 µM | [3] > 100 µM | [14] > 100 µM | [4] > 100 µM | [5] > 100 µM | [15] > 100 µM | [6] > 100 µM | [7] > 100 µM | [8] > 100 µM | [9] 86.5 µM | [10] > 100 µM | [11] > 100 µM | [12] > 100 µM | [13] > 100 µM

Cc1ccc(NC(=O)C2C(=O)N(c3ccc(C)c(C)c3)C(=O)/C2=N/O)cc1C (configuration not stated)
inactive: [1] > 100 µM | [2] > 100 µM | [3] > 100 µM | [14] > 100 µM | [4] > 100 µM | [5] > 100 µM | [15] > 100 µM | [6] > 100 µM | [7] > 100 µM | [8] > 100 µM | [9] 19.3 µM | [10] > 100 µM | [11] > 100 µM | [12] > 100 µM | [13] > 100 µM

O=C(NNc1ccccc1)/C(=C/c1ccc2c(c1)OCO2)NC(=O)c1ccccc1
inactive: [1] > 100 µM | [2] > 100 µM | [3] > 100 µM | [14] > 100 µM | [4] > 100 µM | [5] 55 µM | [15] 52.2 µM | [6] > 100 µM | [7] > 100 µM | [8] > 100 µM | [10] > 100 µM | [11] 98.4 µM | [12] > 100 µM | [13] > 100 µM

CC(C)(C)C(=O)CC(=O)C(C)(C)C.CC(C)(C)C(=O)CC(=O)C(C)(C)C.[SiH4]
inactive: [1] 2.81 µM | [3] 2.33 µM | [4] 1.47 µM | [5] 2.11 µM | [7] 1.76 µM | [8] 3.15 µM | [10] 3.4 µM | [12] 2.44 µM | [13] 2.99 µM
active: [2] < 0.01 µM | [14] 0.692 µM | [15] 0.299 µM | [9] 0.847 µM | [11] 0.596 µM

O=C1Cc2c([nH]c3ccccc23)-c2ccccc2N1 [PAULLONE]
inactive: [1] 67.8 µM | [2] 49.5 µM | [3] 33.7 µM | [14] 62.5 µM | [4] 27.2 µM | [5] 17.1 µM | [15] 20.2 µM | [6] 16.1 µM | [7] 45.2 µM | [8] 48.8 µM | [9] 28.2 µM | [10] > 100 µM | [11] 39.6 µM | [12] 59.2 µM
